Source: patent US9359406B2, “Vaccine for a therapeutic or a prophylactic treatment of myasthenia gravis” (CuraVac Inc., priority 2006, dated 2016)
No end group written: not given here.

Legend:
[1] = tested on: experimental autoimmune myasthenia gravis (EAMG); assay: Example 3: EAMG induced with purified Torpedo AChR in Lewis rats vaccinated with T-peptide, B-peptide or both; format: in vivo; settings: immunized three times
Text: To evaluate whether vaccination with T-peptide together with B-peptide with an hydrocarbon group causes a different effect on experimental autoimmune myasthenia gravis (EAMG) than either B with an hydrocarbon group and T-peptide alone and separately, Lewis rats were immunized three times with keyhole limpet hemacyanin (KLH) or T-peptide or B-peptide with an hydrocarbon group coupled to KLH either alone or in combination. EAMG was then induced with purified Torpedo AChR and disease was monitored.

[2] = tested on: pathogenic antibodies; assay: Pathogenic antibodies level in rats given B-peptide and T-peptide alone or together; format: in vivo; settings: result in words
Description: As previously described, the peptide RhCA 67-16 also called herein B-peptide and the peptide RhCA 611-001 also referred herein T-peptide were tested alone on rats.

[3] = tested on: Experimental Autoimmune Myasthenia Gravis (EAMG); settings: cited from earlier work

| Substance | Average Severity [1] | EAMG Incidence (%) [1] [%] | Mortality (%) [1] [%] | Severity 0, number of rats [1] | Severity 1, number of rats [1] | Severity 2, number of rats [1] | Severity 4, number of rats [1] | pathogenic antibodies level [2] | incidence of the disease in vaccinated animals ([3]; peptide conjugated to KLH, controls 90%) [%] | clinical severity scoring in animals with disease, average ([3]; peptide conjugated to KLH, positive controls 3.5) | clinical outcome after immunization ([3]; Lewis rats, result in words) |
| --- | --- | --- | --- | --- | --- | --- | --- | --- | --- | --- | --- |
| NH2-Phe-Asn-Ser-Thr-Ile-Ile-Gly-Trp-Ile-Pro-Ala-Lys-Pro-His-Ile-Asn (H-FNSTIIGWIPAKPHIN; also: Trp8 carries at least one 2,4,6-trimethoxybenzyl group) [RhCA 67-16] | 1.33 ± 0.55 | 55.56 | 22.22 | 4 | 2 | 1 | 2 | significant decrease | 25 | 1.0 | – |
| NH2-Tyr-Phe-Ser-Arg-Ile-Ile-Gln-Lys-Gln-Phe-Gly-His-Val-Asn-Asn-Gly-Lys (H-YFSRIIQKQFGHVNNGK) [RhCA 611-001, peptide complementary to residues 100-116 of the α-chain of the AChR] | 1.22 ± 0.55 | 55.56 | 22.22 | 4 | 3 | – | 2 | significant decrease | – | – | marked clinical improvement, lowered mortality and preservation of AChR levels on muscles |
